Like-named read-outs stand apart in the source and are kept apart here.
Key:
recombinant human S1PR2 = recombinant human S1PR2 (Homo sapiens, UniProt O95136); assay: [32P]S1P competitive binding assay, S1PR2
recombinant human S1PR3 = recombinant human S1PR3 (Homo sapiens, UniProt Q99500); assay: [32P]S1P competitive binding assay, S1PR3
recombinant human S1PR1 = recombinant human S1PR1 (Homo sapiens, UniProt P21453); assay: [32P]S1P competitive binding assay, S1PR1; details: for fold decrease of S1PR1 binding potency compared to 10a: ratio of IC50 values versus 10a
recombinant human S1PR4 = biological target: T1, recombinant human S1PR4 (Homo sapiens, UniProt O95977); assay: [32P]S1P competitive binding assay, S1PR4; details: read-out: IC50 S1PR4; competition against [32P]S1P, recombinant human S1PR4 membranes; mean ± SD
T1 sequence (O95977 1-384): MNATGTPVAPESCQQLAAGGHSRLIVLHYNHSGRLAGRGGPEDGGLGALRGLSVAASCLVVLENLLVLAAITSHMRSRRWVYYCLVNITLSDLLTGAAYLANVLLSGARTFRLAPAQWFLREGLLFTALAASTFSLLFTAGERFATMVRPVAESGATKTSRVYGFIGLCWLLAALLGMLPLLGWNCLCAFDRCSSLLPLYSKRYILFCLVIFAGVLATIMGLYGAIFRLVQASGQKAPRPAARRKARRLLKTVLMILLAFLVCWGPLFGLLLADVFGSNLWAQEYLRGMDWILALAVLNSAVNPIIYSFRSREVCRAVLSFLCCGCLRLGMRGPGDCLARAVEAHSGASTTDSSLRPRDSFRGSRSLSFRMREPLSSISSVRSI

recombinant human S1PR5 = recombinant human S1PR5 (Homo sapiens, UniProt Q9H228); assay: [32P]S1P competitive binding assay, S1PR5; details: read-out: IC50 S1PR5; competition against [32P]S1P, recombinant human S1PR5 membranes; mean ± SD
[1] = read-out: IC50 S1PR1, competition against [32P]S1P, cell membranes expressing recombinant human S1PR1, mean ± SD, at least 3 independent experiments in duplicate

Chain of recombinant human S1PR1 (P21453 whole entry): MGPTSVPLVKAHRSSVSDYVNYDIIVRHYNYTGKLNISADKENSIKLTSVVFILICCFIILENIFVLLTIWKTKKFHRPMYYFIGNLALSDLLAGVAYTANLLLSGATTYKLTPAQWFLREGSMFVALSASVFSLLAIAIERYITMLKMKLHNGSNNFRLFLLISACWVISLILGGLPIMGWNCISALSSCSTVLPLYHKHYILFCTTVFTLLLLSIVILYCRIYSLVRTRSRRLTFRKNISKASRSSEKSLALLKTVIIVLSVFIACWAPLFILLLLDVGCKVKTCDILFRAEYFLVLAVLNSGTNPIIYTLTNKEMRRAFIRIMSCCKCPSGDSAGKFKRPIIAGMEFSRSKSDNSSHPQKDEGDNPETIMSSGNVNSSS
Chain of recombinant human S1PR2 (O95136 whole entry): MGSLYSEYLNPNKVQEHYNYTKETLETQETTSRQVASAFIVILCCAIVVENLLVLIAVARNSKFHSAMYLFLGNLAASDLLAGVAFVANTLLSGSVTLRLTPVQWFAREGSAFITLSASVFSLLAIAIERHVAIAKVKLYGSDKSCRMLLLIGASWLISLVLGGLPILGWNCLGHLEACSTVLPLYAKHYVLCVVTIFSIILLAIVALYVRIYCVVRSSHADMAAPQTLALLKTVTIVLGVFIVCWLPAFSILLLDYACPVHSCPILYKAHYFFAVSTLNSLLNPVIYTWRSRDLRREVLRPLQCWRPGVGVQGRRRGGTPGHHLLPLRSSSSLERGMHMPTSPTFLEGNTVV
Chain of recombinant human S1PR3 (Q99500 whole entry): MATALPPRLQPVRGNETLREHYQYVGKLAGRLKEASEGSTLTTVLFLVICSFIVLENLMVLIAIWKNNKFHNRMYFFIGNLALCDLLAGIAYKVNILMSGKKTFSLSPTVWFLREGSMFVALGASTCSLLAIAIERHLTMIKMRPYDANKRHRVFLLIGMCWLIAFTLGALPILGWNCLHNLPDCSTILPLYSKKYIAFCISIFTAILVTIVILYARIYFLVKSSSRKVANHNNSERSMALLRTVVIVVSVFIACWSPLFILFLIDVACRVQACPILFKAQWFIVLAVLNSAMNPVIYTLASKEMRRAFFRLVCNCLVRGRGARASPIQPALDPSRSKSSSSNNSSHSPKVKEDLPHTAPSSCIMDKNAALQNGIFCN
Chain of recombinant human S1PR5 (Q9H228 whole entry): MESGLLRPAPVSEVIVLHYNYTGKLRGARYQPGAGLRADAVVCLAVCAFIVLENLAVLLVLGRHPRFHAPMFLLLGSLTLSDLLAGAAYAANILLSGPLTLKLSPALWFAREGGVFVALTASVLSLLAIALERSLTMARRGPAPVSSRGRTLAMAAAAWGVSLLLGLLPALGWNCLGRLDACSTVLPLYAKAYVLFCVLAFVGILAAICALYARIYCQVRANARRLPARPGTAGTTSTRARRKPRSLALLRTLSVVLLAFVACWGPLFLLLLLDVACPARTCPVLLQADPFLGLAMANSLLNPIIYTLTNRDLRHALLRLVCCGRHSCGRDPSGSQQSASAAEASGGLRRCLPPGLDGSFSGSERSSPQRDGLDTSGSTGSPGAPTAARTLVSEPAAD

For `OCc1ccc(-c2noc(-c3ccc(OCCF)c(C(F)(F)F)c3)n2)cc1` [10a, (4-(5-(4-(2-Fluoroethoxy)-3-(trifluoromethyl)phenyl)-1,2,4-oxadiazol-3-yl)phenyl)methanol], the IC50 (recombinant human S1PR2) was over 1000 nM and the IC50 (recombinant human S1PR3) was over 1000 nM.
For `OCC(O)c1ccc(-c2noc(-c3ccc(OCCF)c(C(F)(F)F)c3)n2)cc1` (racemic) [(±)-24, (±)-1-(4-(5-(4-(2-Fluoroethoxy)-3-(trifluoromethyl)phenyl)-1,2,4-oxadiazol-3-yl)phenyl)ethane-1,2-diol], the IC50 (recombinant human S1PR2; read-out: IC50 S1PR2, competition against [32P]S1P, recombinant human S1PR2 membranes, mean ± SD) was over 1000 nM, the IC50 (recombinant human S1PR1; [1]) was under 20 nM and the IC50 (recombinant human S1PR4) was over 1000 nM. It also gave an IC50 (recombinant human S1PR3; read-out: IC50 S1PR3, competition against [32P]S1P, recombinant human S1PR3 membranes, mean ± SD) of over 1000 nM and an IC50 (recombinant human S1PR5) of over 1000 nM.
With `OCCOCCOCCOCc1ccc(-c2noc(-c3ccc(OCCF)c(C(F)(F)F)c3)n2)cc1` [17c, 2-(2-(2-((4-(5-(4-(2-Fluoroethoxy)-3-(trifluoromethyl)phenyl)-1,2,4-oxadiazol-3-yl)benzyl)oxy)ethoxy)ethoxy)ethan-1-ol] the “fold decrease of S1PR1 binding potency compared to 10a” value (recombinant human S1PR1) was “approximately 16 fold”.
`OCCNCc1ccc(-c2noc(-c3ccc(OCCF)c(C(F)(F)F)c3)n2)cc1` [13d, 2-((4-(5-(4-(2-Fluoroethoxy)-3-(trifluoromethyl)phenyl)-1,2,4-oxadiazol-3-yl)benzyl)amino)ethan-1-ol] gave an IC50 (recombinant human S1PR1) of 48.2 nM.
For `CN(CCO)Cc1ccc(-c2noc(-c3ccc(OCCF)c(C(F)(F)F)c3)n2)cc1` [13b, 2-((4-(5-(4-(2-Fluoroethoxy)-3-(trifluoromethyl)phenyl)-1,2,4-oxadiazol-3-yl)benzyl)(methyl)amino)ethan-1-ol], the IC50 (recombinant human S1PR1) was 38 nM.
With `OCc1ccc(-c2noc(-c3ccc(OCCF)cc3)n2)cc1` [10c, (4-(5-(4-(2-Fluoroethoxy)phenyl)-1,2,4-oxadiazol-3-yl)-phenyl)-methanol] the IC50 (recombinant human S1PR1) was over 1000 nM.
In the case of `N#Cc1cc(-c2nc(-c3ccc(CO)cc3)no2)ccc1OCCF` [10b, 2-(2-Fluoroethoxy)-5-(3-(4-(hydroxymethyl)phenyl)-1,2,4-oxadiazol-5-yl)benzonitrile], the “fold decrease of S1PR1 binding potency compared to 10a” value (recombinant human S1PR1) is reported as 2.3 fold.
Compound `OCCOc1ccc(-c2noc(-c3ccc(OCCF)c(C(F)(F)F)c3)n2)cc1` [20a, 2-(4-(5-(4-(2-Fluoroethoxy)-3-(trifluoromethyl)phenyl)-1,2,4-oxadiazol-3-yl)phenoxy)ethan-1-ol] has an IC50 (recombinant human S1PR1) of 56.6 nM.
Work on `OCCOCCOCc1ccc(-c2noc(-c3ccc(OCCF)c(C(F)(F)F)c3)n2)cc1` [17b, 2-(2-((4-(5-(4-(2-Fluoroethoxy)-3-(trifluoromethyl)phenyl)-1,2,4-oxadiazol-3-yl)benzyl)oxy)ethoxy)ethan-1-ol] yielded an IC50 (recombinant human S1PR2) of over 1000 nM and an IC50 (recombinant human S1PR3) of over 1000 nM.
For `CN(Cc1ccc(-c2noc(-c3ccc(OCCF)c(C(F)(F)F)c3)n2)cc1)CC(O)CO` (racemic) [(±)-13a, (±)-3-((4-(5-(4-(2-Fluoroethoxy)-3-(trifluoromethyl)phenyl)-1,2,4-oxadiazol-3-yl)benzyl)(methyl)amino)propane-1,2-diol], the IC50 (recombinant human S1PR1; [1]) was 39.9 nM.
In the case of `OCCOCc1ccc(-c2noc(-c3ccc(OCCF)c(C(F)(F)F)c3)n2)cc1` [17a, 2-((4-(5-(4-(2-Fluoroethoxy)-3-(trifluoromethyl)phenyl)-1,2,4-oxadiazol-3-yl)benzyl)oxy)ethan-1-ol], the IC50 (recombinant human S1PR2) is reported as over 1000 nM and the IC50 (recombinant human S1PR3) is reported as over 1000 nM.
Work on `OCC(O)COCc1ccc(-c2noc(-c3ccc(OCCF)c(C(F)(F)F)c3)n2)cc1` (racemic) [(±)-20b, (±)-3-((4-(5-(4-(2-Fluoroethoxy)-3-(trifluoromethyl)phenyl)-1,2,4-oxadiazol-3-yl)benzyl)oxy)propane-1,2-diol] yielded an IC50 (recombinant human S1PR1; [1]) of 23.8 nM.
